Experiments:
[1] = target: EGFR (Homo sapiens, UniProt P00533); test: Inhibition of a panel of kinases, in vitro HotSpot kinase assay: EGFR; assay type: biochemical; settings: D-compounds panel data; 1 μM ATP
Description: The degree of inhibition of a panel of kinases is determined using the in vitro HotSpot kinase assay (purified enzymes, ^33P-ATP, an appropriate substrate and 1 μM ATP).

[2] = target: T1, JAK3 (Homo sapiens, UniProt P52333); test: Inhibition of a panel of kinases, in vitro HotSpot kinase assay: JAK3; assay type: biochemical; settings: D-compounds panel data; 1 μM ATP; read-out: IC50 JAK3
T1 sequence (P52333 1-1124): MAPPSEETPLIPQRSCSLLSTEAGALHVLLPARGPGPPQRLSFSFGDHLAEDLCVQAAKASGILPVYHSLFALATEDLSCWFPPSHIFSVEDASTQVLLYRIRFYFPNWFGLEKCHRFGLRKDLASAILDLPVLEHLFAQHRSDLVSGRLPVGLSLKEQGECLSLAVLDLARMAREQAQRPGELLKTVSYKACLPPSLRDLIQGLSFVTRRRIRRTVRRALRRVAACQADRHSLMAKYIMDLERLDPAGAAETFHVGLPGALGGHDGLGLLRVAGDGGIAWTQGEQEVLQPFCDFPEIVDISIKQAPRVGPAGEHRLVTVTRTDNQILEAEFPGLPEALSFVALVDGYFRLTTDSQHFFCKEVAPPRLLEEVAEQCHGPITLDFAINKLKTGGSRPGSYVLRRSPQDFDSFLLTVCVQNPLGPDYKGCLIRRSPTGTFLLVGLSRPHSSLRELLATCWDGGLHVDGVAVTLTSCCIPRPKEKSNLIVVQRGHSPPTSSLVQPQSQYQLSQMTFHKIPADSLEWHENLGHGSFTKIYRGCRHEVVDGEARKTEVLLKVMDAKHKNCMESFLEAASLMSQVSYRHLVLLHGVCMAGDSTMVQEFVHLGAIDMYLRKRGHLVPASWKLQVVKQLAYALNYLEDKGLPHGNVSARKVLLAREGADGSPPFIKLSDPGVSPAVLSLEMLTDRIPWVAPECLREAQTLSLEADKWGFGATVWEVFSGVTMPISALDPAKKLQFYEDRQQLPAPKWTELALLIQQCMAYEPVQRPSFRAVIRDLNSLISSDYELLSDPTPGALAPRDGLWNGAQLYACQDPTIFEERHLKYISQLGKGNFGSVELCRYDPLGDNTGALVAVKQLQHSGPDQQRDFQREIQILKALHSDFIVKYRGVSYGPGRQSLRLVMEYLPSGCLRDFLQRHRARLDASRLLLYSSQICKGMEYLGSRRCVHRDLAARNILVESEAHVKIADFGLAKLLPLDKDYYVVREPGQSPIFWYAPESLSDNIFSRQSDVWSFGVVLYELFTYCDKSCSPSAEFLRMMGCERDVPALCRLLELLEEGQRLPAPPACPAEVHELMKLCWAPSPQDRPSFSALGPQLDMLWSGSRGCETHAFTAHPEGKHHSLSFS

Chain of EGFR (P00533 25-1210): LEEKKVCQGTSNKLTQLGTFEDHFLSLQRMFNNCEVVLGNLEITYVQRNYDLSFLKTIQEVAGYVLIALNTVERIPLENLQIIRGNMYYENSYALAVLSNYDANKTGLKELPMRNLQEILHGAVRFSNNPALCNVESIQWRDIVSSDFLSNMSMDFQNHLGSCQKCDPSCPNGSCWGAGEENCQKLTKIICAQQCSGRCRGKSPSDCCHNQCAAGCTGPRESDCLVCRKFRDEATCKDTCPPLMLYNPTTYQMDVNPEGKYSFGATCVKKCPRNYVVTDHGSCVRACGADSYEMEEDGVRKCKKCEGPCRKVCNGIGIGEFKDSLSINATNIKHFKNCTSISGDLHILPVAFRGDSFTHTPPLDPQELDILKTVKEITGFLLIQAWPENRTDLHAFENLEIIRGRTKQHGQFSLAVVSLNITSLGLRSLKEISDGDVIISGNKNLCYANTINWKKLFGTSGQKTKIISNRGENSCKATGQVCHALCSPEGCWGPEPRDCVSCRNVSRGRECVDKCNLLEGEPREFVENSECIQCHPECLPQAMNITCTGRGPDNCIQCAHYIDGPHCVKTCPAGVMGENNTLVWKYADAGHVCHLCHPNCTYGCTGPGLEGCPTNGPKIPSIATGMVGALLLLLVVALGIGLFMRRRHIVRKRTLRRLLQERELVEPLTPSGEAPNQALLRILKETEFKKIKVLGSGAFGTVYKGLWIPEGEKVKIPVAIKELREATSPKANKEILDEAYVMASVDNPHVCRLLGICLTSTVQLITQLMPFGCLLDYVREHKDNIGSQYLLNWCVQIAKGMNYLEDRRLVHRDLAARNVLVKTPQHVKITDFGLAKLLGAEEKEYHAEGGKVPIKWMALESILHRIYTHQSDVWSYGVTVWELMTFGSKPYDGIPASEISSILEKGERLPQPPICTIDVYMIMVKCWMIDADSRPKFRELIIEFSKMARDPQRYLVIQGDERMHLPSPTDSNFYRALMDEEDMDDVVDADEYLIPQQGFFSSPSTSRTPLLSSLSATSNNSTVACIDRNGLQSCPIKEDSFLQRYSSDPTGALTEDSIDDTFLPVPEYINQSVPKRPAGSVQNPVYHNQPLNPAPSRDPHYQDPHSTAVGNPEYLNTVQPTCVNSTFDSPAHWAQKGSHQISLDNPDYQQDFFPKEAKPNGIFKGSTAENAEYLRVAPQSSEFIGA

Row | SMILES | IC50 [1] | IC50 [2]
1 | C[C@@H]1[C@H](NC(=O)c2ccc(C(O)C(F)(F)F)cc2)CCCN1c1cnc(C(N)=O)c(Nc2cnn(C)c2)n1 (single isomer, unassigned) [Example D-249] | 1000 to 10000 nM | 1000 to 10000 nM
2 | C[C@@H]1[C@H](NC(=O)c2ccc(C(O)C(F)(F)F)cc2)CCCN1c1cnc(C(N)=O)c(Nc2cnn(C)c2)n1 (single isomer, unassigned) [Example D-250] | 100 to 1000 nM | 100 to 1000 nM
3 | C[C@@H]1[C@H](NC(=O)c2ccc(C(C)(O)CO)cc2)CCCN1c1cnc(C(N)=O)c(Nc2cnn(C)c2)n1 (single isomer, unassigned) [Example D-256] | 100 to 1000 nM | 100 to 1000 nM
4 | C[C@@H]1[C@H](NC(=O)c2ccc(C(C)(O)CO)cc2)CCCN1c1cnc(C(N)=O)c(Nc2cnn(C)c2)n1 (single isomer, unassigned) [Example D-265] | 100 to 1000 nM | 100 to 1000 nM
5 | C[C@@H]1[C@H](NC(=O)c2cc3c(n2C)CC(C)(C)C3)CCCN1c1cnc(C(N)=O)c(Nc2cnn(C)c2)n1 [Example D-19, 3-[(1-methyl-1H-pyrazol-4-yl)amino]-5-[(2R,3R)-2-methyl-3-{1,5,5-trimethyl-1H,4H,5H,6H-cyclopenta[b]pyrrole-2-amido}piperidin-1-yl]pyrazine-2-carboxamide] | 100 to 1000 nM | 100 to 1000 nM
6 | C[C@@H]1[C@H](NC(=O)c2ccc(C3CC3)cc2Cl)CCCN1c1cnc(C(N)=O)c(Nc2cnn(C)c2)n1 [Example D-20, 5-[(2R,3R)-3-(2-chloro-4-cyclopropylbenzamido)-2-methylpiperidin-1-yl]-3-[(1-methyl-1H-pyrazol-4-yl)amino]pyrazine-2-carboxamide] | 1000 to 10000 nM | 1000 to 10000 nM
7 | C[C@@H]1[C@H](NC(=O)c2ccc(C3CC3)cn2)CCCN1c1cnc(C(N)=O)c(Nc2cnn(C)c2)n1 [Example D-21, 5-[(2R,3R)-3-(5-cyclopropylpyridine-2-amido)-2-methylpiperidin-1-yl]-3-[(1-methyl-1H-pyrazol-4-yl)amino]pyrazine-2-carboxamide] | 1000 to 10000 nM | 1000 to 10000 nM
8 | C[C@@H]1[C@H](NC(=O)c2ccc(C(C)(C)C)cc2)CCCN1c1cnc(C(N)=O)c(Nc2cnn(C)c2)n1 [Example D-22, 5-[(2R,3R)-3-(4-tert-butylbenzamido)-2-methylpiperidin-1-yl]-3-[(1-methyl-1H-pyrazol-4-yl)amino]pyrazine-2-carboxamide] | 1000 to 10000 nM | > 10000 nM
9 | C[C@@H]1[C@H](NC(=O)c2ccc(C3COC3)cc2)CCCN1c1cnc(C(N)=O)c(Nc2cnn(C)c2)n1 [Example D-23, 3-[(1-methyl-1H-pyrazol-4-yl)amino]-5-[(2R,3R)-2-methyl-3-[4-(oxetan-3-yl)benzamido]piperidin-1-yl]pyrazine-2-carboxamide] | 1000 to 10000 nM | 100 to 1000 nM
10 | C[C@@H]1[C@H](NC(=O)c2ccc(N(C)C)cc2)CCCN1c1cnc(C(N)=O)c(Nc2cnn(C)c2)n1 [Example D-24, 5-[(2R,3R)-3-[4-(dimethylamino)benzamido]-2-methylpiperidin-1-yl]-3-[(1-methyl-1H-pyrazol-4-yl)amino]pyrazine-2-carboxamide] | 1000 to 10000 nM | 1000 to 10000 nM
11 | C[C@@H]1[C@H](NC(=O)c2ccc(C3CC3)cc2C(F)(F)F)CCCN1c1cnc(C(N)=O)c(Nc2cnn(C)c2)n1 [Example D-25, 5-[(2R,3R)-3-[4-cyclopropyl-2-(trifluoromethyl)benzamido]-2-methylpiperidin-1-yl]-3-[(1-methyl-1H-pyrazol-4-yl)amino]pyrazine-2-carboxamide] | 1000 to 10000 nM | 1000 to 10000 nM
12 | C[C@@H]1[C@H](NC(=O)c2ccc3ncsc3c2)CCCN1c1cnc(C(N)=O)c(Nc2cnn(C)c2)n1 [Example D-243, N-[(2R,3R)-1-{5-carbamoyl-6-[(1-methyl-1H-pyrazol-4-yl)amino]pyrazin-2-yl}-2-methylpiperidin-3-yl]-1,3-benzothiazole-6-carboxamide] | 1000 to 10000 nM | 100 to 1000 nM
